ChEMBL document CHEMBL1201862, “PubChem BioAssay data set” (2004)
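Five concentrations, 48 hours, 96-well plates. GI50 marks 50% less growth.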 Active and inactive are the calls of the source. Cut-off read from the data, not from the text of the source: active = GI50 up to about 1.1 µM and inactive = higher.

Key:
Experiment in all cases: NCI tumour cell line growth inhibition, 48 h
786-0 = system: 786-0
A498 = system: A498
A549 = system: A549
ACHN = system: ACHN
CAKI-1 = system: CAKI-1
CCRF-CEM = system: CCRF-CEM
DLD-1 = system: DLD-1
DMS-114 = system: DMS-114
DMS-273 = system: DMS-273
EKVX = system: EKVX
HCC 2998 = system: HCC 2998
HCT-116 = system: HCT-116
HCT-15 = system: HCT-15
HL-60 = system: HL-60
HOP-18 = system: HOP-18
HOP-62 = system: HOP-62
HOP-92 = system: HOP-92
HT-29 = system: HT-29
IGROV-1 = system: IGROV-1
K562 = system: K562
KM-20L2 = system: KM-20L2
KM12 = system: KM12
LOX IMVI = system: LOX IMVI
LXFL 529 = system: LXFL 529
M14 = system: M14
M19-MEL = system: M19-MEL
MOLT-4 = system: MOLT-4
Malme-3M = system: Malme-3M
NCI-H226 = system: NCI-H226
NCI-H23 = system: NCI-H23
NCI-H460 = system: NCI-H460
NCI-H522 = system: NCI-H522
OVCAR-4 = system: OVCAR-4
OVCAR-5 = system: OVCAR-5
OVCAR-8 = system: OVCAR-8
RPMI-8226 = system: RPMI-8226
RXF 393 = system: RXF 393
RXF 631 = system: RXF 631
SF-268 = system: SF-268
SF-295 = system: SF-295
SF-539 = system: SF-539
SK-MEL-28 = system: SK-MEL-28
SK-MEL-2 = system: SK-MEL-2
SK-OV-3 = system: SK-OV-3
SN12C = system: SN12C
SNB-19 = system: SNB-19
SNB-75 = system: SNB-75
SNB-78 = system: SNB-78
SR = system: SR
SW-620 = system: SW-620
TK-10 = system: TK-10
U-251 = system: U-251
UACC-257 = system: UACC-257
UACC-62 = system: UACC-62
UO-31 = system: UO-31
XF498 = system: XF498
BT-549 = system: BT-549
COLO 205 = system: COLO 205
DU-145 = system: DU-145
Hs-578T = system: Hs-578T
MCF7 = system: MCF7
MDA-MB-231 = system: MDA-MB-231
MDA-MB-435 = system: MDA-MB-435
MDA-N = system: MDA-N
NCI/ADR-RES = system: NCI/ADR-RES
OVCAR-3 = system: OVCAR-3
PC-3 = system: PC-3
SK-MEL-5 = system: SK-MEL-5
T47D = system: T47D

CN(C)C(=N/O)/C(=N\O)N(C)C
GI50 (786-0): > 100 µM (inactive) | GI50 (A498): > 100 µM (inactive) | GI50 (A549): > 100 µM (inactive) | GI50 (ACHN): > 100 µM (inactive) | GI50 (CAKI-1): > 100 µM (inactive) | GI50 (CCRF-CEM): > 100 µM (inactive) | GI50 (DLD-1): > 100 µM (inactive) | GI50 (DMS-114): > 100 µM (inactive) | GI50 (DMS-273): > 100 µM (inactive) | GI50 (EKVX): > 100 µM (inactive) | GI50 (HCC 2998): > 100 µM (inactive) | GI50 (HCT-116): > 100 µM (inactive) | GI50 (HCT-15): > 100 µM | GI50 (HL-60): > 100 µM (inactive) | GI50 (HOP-18): > 100 µM (inactive) | GI50 (HOP-62): > 100 µM (inactive) | GI50 (HOP-92): > 100 µM (inactive) | GI50 (HT-29): > 100 µM (inactive) | GI50 (IGROV-1): > 100 µM (inactive) | GI50 (K562): > 100 µM (inactive) | GI50 (KM-20L2): > 100 µM (inactive) | GI50 (KM12): > 100 µM (inactive) | GI50 (LOX IMVI): > 100 µM (inactive) | GI50 (LXFL 529): > 100 µM (inactive) | GI50 (M14): > 100 µM (inactive) | GI50 (M19-MEL): > 100 µM (inactive) | GI50 (MOLT-4): > 100 µM (inactive) | GI50 (Malme-3M): > 100 µM (inactive) | GI50 (NCI-H226): 15.6 µM (inactive) | GI50 (NCI-H23): > 100 µM (inactive) | GI50 (NCI-H460): > 100 µM (inactive) | GI50 (NCI-H522): > 100 µM (inactive) | GI50 (OVCAR-4): > 100 µM (inactive) | GI50 (OVCAR-5): > 100 µM (inactive) | GI50 (OVCAR-8): > 100 µM (inactive) | GI50 (RPMI-8226): > 100 µM (inactive) | GI50 (RXF 393): > 100 µM (inactive) | GI50 (RXF 631): > 100 µM (inactive) | GI50 (SF-268): > 100 µM (inactive) | GI50 (SF-295): > 100 µM (inactive) | GI50 (SF-539): > 100 µM (inactive) | GI50 (SK-MEL-28): > 100 µM (inactive) | GI50 (SK-MEL-2): > 100 µM (inactive) | GI50 (SK-OV-3): > 100 µM (inactive) | GI50 (SN12C): > 100 µM (inactive) | GI50 (SNB-19): > 100 µM (inactive) | GI50 (SNB-75): > 100 µM (inactive) | GI50 (SNB-78): > 100 µM (inactive) | GI50 (SR): > 100 µM (inactive) | GI50 (SW-620): > 100 µM (inactive) | GI50 (TK-10): > 100 µM (inactive) | GI50 (U-251): > 100 µM (inactive) | GI50 (UACC-257): > 100 µM (inactive) | GI50 (UACC-62): > 100 µM (inactive) | GI50 (UO-31): > 100 µM (inactive) | GI50 (XF498): > 100 µM (inactive)

CCC1(O)C(=O)OCc2c1cc1n(c2=O)Cc2cc3ccc(C=O)cc3nc2-1 (centres undefined)
GI50 (786-0): 0.608 µM (active) | GI50 (A498): 4.06 µM (inactive) | GI50 (A549): 2.13 µM (inactive) | GI50 (ACHN): 0.713 µM (active) | GI50 (BT-549): 2.28 µM (inactive) | GI50 (CAKI-1): 1.73 µM (inactive) | GI50 (CCRF-CEM): 0.0431 µM (active) | GI50 (COLO 205): 9.08 µM (inactive) | GI50 (DLD-1): 12.4 µM (inactive) | GI50 (DMS-114): 0.607 µM (active) | GI50 (DMS-273): 0.484 µM (active) | GI50 (DU-145): 0.466 µM (active) | GI50 (EKVX): 19.1 µM (inactive) | GI50 (HCC 2998): 4.62 µM (inactive) | GI50 (HCT-116): 1.34 µM (inactive) | GI50 (HCT-15): 6.08 µM | GI50 (HL-60): 1.36 µM (inactive) | GI50 (HOP-18): 3.47 µM (inactive) | GI50 (HOP-62): 0.294 µM (active) | GI50 (HOP-92): 11.1 µM (inactive) | GI50 (HT-29): 4.9 µM (inactive) | GI50 (Hs-578T): 17.8 µM (inactive) | GI50 (IGROV-1): 8.09 µM (inactive) | GI50 (K562): 1.91 µM (inactive) | GI50 (KM-20L2): 5.68 µM (inactive) | GI50 (KM12): > 86.5 µM (inactive) | GI50 (LOX IMVI): 0.472 µM (active) | GI50 (LXFL 529): 12.8 µM (inactive) | GI50 (M14): 1.12 µM (active) | GI50 (M19-MEL): 2.89 µM (inactive) | GI50 (MCF7): 0.335 µM (active) | GI50 (MDA-MB-231): 22.4 µM (inactive) | GI50 (MDA-MB-435): 7.18 µM (inactive) | GI50 (MDA-N): 5.56 µM (inactive) | GI50 (MOLT-4): 0.132 µM (active) | GI50 (Malme-3M): 4.33 µM (inactive) | GI50 (NCI-H226): 1.58 µM (inactive) | GI50 (NCI-H23): 2.07 µM (inactive) | GI50 (NCI-H460): 0.493 µM (active) | GI50 (NCI/ADR-RES): 0.574 µM (active) | GI50 (OVCAR-3): 4.51 µM (inactive) | GI50 (OVCAR-4): 3.33 µM (inactive) | GI50 (OVCAR-5): 7.29 µM (inactive) | GI50 (OVCAR-8): 1.96 µM (inactive) | GI50 (PC-3): 5.53 µM (inactive) | GI50 (RPMI-8226): 2.79 µM (inactive) | GI50 (RXF 393): 2.2 µM (inactive) | GI50 (RXF 631): 2.38 µM (inactive) | GI50 (SF-268): 0.321 µM (active) | GI50 (SF-295): 3.23 µM (inactive) | GI50 (SF-539): 0.551 µM (active) | GI50 (SK-MEL-28): 27.1 µM (inactive) | GI50 (SK-MEL-2): 13.4 µM (inactive) | GI50 (SK-MEL-5): 1.83 µM (inactive) | GI50 (SK-OV-3): 2.2 µM (inactive) | GI50 (SN12C): 0.387 µM (active) | GI50 (SNB-19): 2.04 µM (inactive) | GI50 (SNB-75): 1.36 µM (inactive) | GI50 (SNB-78): 19.9 µM (inactive) | GI50 (SR): < 0.013 µM (active) | GI50 (SW-620): 1.03 µM (active) | GI50 (T47D): 0.655 µM (active) | GI50 (TK-10): 54.3 µM (inactive) | GI50 (U-251): 0.637 µM (active) | GI50 (UACC-257): 6.19 µM (inactive) | GI50 (UACC-62): 0.566 µM (active) | GI50 (UO-31): 1.83 µM (inactive) | GI50 (XF498): 2.7 µM (inactive)
